Results from ChEMBL document CHEMBL5653615 (J Biol Chem, 2013).
Blank lines part the entries; values can stand above or below the molecule they belong to. Active and inactive are the calls of the source. No cut-off for these calls is given here.

What was measured:
[1] = target: Serine/threonine-protein kinase PLK2 (Homo sapiens) (UniProt Q9NYY3); experiment: Inhibition of human PLK2 at 18.6 nM by HotSpot assay relative to control
[2] = target: NT-3 growth factor receptor (Homo sapiens) (UniProt Q16288); experiment: Inhibition of human TRKC at 18.6 nM by HotSpot assay relative to control
[3] = target: T1, Serine/threonine-protein kinase VRK1 (Homo sapiens) (UniProt Q99986); experiment: Inhibition of human VRK1 at 18.6 nM by HotSpot assay relative to control
T1 sequence (whole entry): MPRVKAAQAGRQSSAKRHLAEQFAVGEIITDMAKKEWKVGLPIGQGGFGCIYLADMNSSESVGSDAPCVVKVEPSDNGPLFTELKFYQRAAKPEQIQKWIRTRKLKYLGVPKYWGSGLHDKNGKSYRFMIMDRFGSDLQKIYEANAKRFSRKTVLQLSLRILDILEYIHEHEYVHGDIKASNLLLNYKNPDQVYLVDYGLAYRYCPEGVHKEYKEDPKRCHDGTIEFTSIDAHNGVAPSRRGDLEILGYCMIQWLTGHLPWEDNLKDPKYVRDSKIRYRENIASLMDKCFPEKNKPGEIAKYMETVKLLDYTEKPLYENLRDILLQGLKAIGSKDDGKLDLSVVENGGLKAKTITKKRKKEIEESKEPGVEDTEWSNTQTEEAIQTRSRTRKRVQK

[4] = target: STE20-like serine/threonine-protein kinase (Homo sapiens) (UniProt Q9H2G2); experiment: Inhibition of human STK2 at 18.6 nM by HotSpot assay relative to control
[5] = target: T2, Megakaryocyte-associated tyrosine-protein kinase (Homo sapiens) (UniProt P42679); experiment: Inhibition of human CTK at 18.6 nM by HotSpot assay relative to control
T2 sequence (whole entry): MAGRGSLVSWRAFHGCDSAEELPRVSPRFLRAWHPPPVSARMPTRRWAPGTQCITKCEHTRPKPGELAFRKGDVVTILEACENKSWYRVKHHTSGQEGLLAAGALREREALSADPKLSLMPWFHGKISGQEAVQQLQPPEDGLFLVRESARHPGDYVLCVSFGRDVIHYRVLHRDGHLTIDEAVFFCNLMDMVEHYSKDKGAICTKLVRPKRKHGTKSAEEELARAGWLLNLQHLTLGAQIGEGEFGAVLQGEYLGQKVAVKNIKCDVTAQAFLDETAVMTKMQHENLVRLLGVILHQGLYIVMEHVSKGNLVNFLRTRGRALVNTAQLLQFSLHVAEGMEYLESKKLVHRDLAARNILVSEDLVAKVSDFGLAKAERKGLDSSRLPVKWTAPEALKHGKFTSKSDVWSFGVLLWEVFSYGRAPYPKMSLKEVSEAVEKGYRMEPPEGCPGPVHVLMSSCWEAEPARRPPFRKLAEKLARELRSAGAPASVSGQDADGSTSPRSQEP

[6] = Inhibition of di-phosphorylated human Insulin receptor (978 to 1283 residues) C981S mutant kinase domain expressed in baculovirus infected Sf9 cells incubated for 1 hr by [gamma-33P]ATP assay
[7] = target: G protein-coupled receptor kinase 6 (Homo sapiens) (UniProt P43250); experiment: Inhibition of human GRK6 at 1.82 nM by HotSpot assay relative to control
[8] = target: Tyrosine-protein kinase Blk (Homo sapiens) (UniProt P51451); experiment: Inhibition of human BLK at 1.82 nM by HotSpot assay relative to control
[9] = target: Death-associated protein kinase 3 (Homo sapiens) (UniProt O43293); experiment: Inhibition of human DAPK3 at 1.82 nM by HotSpot assay relative to control
[10] = target: Vascular endothelial growth factor receptor 1 (Homo sapiens) (UniProt P17948); experiment: Inhibition of human FLT1 at 1.82 nM by HotSpot assay relative to control
[11] = target: T3, Mitogen-activated protein kinase 12 (Homo sapiens) (UniProt P53778); experiment: Inhibition of human P38g at 1.82 nM by HotSpot assay relative to control
T3 sequence (whole entry): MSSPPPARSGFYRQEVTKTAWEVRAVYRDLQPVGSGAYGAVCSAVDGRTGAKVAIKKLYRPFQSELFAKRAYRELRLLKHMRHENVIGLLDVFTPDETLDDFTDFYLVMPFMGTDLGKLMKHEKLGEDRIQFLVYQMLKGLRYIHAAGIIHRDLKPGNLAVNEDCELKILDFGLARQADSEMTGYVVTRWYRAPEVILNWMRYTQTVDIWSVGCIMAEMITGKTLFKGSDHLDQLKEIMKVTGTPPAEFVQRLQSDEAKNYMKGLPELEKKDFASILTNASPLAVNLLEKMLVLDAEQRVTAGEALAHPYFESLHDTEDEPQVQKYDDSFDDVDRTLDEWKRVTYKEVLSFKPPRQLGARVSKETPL

[12] = target: T4, Serine/threonine-protein kinase Sgk3 (Homo sapiens) (UniProt Q96BR1); experiment: Inhibition of human SGKL at 1.82 nM by HotSpot assay relative to control
T4 sequence (whole entry): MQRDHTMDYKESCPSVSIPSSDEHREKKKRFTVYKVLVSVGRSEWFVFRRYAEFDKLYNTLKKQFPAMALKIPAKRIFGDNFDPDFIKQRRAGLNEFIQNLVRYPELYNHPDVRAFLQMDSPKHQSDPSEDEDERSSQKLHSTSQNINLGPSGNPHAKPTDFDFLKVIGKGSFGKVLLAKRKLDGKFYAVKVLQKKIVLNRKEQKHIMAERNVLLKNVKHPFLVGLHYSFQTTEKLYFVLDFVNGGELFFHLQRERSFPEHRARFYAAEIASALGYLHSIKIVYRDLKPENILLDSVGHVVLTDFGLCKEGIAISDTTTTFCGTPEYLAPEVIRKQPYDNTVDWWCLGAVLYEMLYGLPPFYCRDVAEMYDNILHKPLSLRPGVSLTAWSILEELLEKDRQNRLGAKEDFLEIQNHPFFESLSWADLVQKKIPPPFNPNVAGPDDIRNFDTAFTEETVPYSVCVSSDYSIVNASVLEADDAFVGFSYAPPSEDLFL

[13] = target: Mitogen-activated protein kinase 11 (Homo sapiens) (UniProt Q15759); experiment: Inhibition of human MAPK11 at 1.82 nM by HotSpot assay relative to control
Sequence of Mitogen-activated protein kinase 11 (Homo sapiens) (Q15759 whole entry): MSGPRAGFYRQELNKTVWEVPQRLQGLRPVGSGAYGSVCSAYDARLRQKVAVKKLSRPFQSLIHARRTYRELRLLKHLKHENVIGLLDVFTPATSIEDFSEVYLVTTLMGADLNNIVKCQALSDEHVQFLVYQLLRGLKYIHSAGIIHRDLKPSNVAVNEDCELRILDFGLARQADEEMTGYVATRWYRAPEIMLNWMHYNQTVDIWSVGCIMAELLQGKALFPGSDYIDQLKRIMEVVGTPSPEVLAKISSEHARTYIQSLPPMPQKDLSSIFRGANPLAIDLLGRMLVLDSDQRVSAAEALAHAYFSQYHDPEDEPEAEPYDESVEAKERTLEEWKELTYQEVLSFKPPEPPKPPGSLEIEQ

Sequence of STE20-like serine/threonine-protein kinase (Homo sapiens) (Q9H2G2 whole entry, looked up): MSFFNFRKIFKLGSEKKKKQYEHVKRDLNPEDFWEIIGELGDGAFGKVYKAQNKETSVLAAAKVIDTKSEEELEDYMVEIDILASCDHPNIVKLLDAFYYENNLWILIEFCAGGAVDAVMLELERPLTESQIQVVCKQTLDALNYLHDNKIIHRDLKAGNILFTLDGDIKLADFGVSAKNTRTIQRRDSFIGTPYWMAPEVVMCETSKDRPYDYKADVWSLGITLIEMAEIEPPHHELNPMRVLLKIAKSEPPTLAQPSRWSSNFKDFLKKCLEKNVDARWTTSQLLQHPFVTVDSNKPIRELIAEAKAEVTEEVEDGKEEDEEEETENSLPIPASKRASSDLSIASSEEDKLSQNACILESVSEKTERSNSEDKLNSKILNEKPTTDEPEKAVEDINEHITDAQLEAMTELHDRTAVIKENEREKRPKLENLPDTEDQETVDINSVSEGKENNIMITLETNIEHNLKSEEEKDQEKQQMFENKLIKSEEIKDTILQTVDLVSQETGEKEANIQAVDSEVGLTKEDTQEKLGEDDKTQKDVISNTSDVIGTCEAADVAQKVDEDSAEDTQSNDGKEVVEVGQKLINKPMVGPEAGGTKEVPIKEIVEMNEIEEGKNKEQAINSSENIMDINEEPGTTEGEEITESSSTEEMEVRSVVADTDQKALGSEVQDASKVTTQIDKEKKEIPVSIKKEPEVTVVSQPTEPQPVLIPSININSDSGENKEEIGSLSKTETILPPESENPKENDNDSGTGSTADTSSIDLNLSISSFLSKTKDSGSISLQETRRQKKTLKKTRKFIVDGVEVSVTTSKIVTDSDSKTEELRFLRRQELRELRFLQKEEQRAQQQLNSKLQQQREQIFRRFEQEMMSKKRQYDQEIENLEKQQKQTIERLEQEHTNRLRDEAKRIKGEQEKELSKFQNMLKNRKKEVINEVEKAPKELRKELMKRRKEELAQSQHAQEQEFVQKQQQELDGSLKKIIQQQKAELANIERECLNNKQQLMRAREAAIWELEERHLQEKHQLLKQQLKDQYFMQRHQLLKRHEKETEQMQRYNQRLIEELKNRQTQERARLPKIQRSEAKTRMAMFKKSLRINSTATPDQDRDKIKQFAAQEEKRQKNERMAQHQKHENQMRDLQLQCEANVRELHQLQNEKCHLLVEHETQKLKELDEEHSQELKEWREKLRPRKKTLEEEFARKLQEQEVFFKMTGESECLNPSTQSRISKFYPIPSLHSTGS
Sequence of Tyrosine-protein kinase Blk (Homo sapiens) (P51451 2-505 limits assumed): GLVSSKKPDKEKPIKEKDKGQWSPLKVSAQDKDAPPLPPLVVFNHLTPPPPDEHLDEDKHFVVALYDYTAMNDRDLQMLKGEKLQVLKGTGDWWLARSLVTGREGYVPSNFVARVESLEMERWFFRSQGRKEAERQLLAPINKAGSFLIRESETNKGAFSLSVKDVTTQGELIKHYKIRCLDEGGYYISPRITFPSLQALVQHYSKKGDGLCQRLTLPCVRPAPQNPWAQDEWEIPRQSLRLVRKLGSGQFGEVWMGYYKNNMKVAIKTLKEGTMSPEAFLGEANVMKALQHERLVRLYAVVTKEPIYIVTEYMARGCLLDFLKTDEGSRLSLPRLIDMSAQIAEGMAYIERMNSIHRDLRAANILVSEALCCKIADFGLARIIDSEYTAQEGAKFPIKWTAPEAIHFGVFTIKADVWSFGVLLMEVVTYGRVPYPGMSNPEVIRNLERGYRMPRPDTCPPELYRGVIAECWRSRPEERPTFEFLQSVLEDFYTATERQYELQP
Sequence of Serine/threonine-protein kinase PLK2 (Homo sapiens) (Q9NYY3 whole entry, looked up): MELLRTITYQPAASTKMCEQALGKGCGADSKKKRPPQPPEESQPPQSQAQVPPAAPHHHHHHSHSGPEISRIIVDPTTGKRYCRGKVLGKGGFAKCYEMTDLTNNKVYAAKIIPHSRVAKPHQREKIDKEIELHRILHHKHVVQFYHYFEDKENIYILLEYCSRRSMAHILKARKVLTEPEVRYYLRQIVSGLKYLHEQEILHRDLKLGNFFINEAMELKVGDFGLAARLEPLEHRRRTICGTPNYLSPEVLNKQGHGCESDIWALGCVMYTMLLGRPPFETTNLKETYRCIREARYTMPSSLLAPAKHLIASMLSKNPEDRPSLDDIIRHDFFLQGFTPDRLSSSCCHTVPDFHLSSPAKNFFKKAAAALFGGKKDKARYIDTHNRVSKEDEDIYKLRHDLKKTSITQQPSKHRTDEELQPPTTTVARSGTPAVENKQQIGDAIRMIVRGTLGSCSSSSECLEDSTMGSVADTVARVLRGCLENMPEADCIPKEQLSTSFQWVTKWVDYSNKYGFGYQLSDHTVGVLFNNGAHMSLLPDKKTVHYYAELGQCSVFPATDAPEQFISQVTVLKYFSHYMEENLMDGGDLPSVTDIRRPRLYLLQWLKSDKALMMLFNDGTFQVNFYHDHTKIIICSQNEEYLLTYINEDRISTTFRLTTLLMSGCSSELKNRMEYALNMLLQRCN
Sequence of Death-associated protein kinase 3 (Homo sapiens) (O43293 whole entry, looked up): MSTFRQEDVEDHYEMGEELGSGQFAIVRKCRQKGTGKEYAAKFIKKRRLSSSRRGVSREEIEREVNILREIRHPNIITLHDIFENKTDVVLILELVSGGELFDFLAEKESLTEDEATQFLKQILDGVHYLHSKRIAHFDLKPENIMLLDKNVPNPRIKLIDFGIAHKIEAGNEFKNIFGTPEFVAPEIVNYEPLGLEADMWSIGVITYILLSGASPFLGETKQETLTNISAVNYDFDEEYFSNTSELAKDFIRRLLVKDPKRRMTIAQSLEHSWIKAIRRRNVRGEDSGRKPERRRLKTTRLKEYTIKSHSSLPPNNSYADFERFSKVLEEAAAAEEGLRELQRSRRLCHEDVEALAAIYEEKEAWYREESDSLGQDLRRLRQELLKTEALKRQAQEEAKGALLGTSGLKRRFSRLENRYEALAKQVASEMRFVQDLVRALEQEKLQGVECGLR
Sequence of G protein-coupled receptor kinase 6 (Homo sapiens) (P43250 whole entry, looked up): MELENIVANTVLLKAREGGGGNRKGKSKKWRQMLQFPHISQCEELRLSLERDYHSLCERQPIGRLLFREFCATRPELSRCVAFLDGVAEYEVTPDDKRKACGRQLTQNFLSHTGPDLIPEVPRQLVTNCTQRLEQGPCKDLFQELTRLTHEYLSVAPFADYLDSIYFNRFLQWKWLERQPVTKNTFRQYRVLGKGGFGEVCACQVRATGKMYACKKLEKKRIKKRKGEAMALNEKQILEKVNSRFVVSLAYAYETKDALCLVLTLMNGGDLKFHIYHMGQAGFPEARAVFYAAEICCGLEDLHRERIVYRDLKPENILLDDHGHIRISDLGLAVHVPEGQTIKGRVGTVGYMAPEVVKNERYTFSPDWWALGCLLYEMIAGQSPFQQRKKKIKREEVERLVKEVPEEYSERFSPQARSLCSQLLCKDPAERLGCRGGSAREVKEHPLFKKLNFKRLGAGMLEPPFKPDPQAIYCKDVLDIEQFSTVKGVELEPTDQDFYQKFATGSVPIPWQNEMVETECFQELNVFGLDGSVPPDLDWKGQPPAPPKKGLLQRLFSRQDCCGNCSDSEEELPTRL
Sequence of NT-3 growth factor receptor (Homo sapiens) (Q16288 32-839 limits assumed): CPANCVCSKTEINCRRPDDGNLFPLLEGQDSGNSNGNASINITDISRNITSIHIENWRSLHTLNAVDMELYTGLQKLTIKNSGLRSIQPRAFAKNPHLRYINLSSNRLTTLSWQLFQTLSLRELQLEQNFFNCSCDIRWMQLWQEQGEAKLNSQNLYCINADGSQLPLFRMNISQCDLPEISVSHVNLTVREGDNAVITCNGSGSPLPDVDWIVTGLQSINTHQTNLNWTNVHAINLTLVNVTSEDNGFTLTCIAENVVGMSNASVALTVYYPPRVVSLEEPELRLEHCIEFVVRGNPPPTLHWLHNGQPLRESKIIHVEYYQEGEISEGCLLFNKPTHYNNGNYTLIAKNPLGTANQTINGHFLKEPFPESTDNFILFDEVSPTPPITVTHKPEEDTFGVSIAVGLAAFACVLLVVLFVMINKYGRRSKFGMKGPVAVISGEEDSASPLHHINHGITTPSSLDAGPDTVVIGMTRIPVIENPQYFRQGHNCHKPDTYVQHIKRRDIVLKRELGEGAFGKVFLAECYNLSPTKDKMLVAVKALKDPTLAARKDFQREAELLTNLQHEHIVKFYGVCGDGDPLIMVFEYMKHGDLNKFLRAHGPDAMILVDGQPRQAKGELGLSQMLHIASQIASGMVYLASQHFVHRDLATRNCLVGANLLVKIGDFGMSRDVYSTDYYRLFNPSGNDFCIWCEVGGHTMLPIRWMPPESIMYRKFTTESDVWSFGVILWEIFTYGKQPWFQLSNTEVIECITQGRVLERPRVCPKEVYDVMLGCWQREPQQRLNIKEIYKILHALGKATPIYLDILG

- inhibition [1]: -0.58%
- inhibition [2]: 0.03%
- inhibition [3]: -6.1%
- inhibition [4]: 9.03%
- inhibition [5]: -2.07%
Structure (SMILES): C[C@]1(O)C[C@@H](c2nc(-c3ccc4ccc(-c5ccccc5)nc4c3)c3c(N)nccn32)C1

Structure (SMILES): Oc1n[nH]c2nnc(-c3c(-c4ccccc4)nn4ccccc34)cc12
- inhibition [6]: inactive

- inhibition [7]: 2.92%
- inhibition [8]: -5.89%
- inhibition [10]: -4.89%
- inhibition [11]: -4.67%
- inhibition [12]: -2.25%
- inhibition [13]: -1.71%
Structure (SMILES): C[C@@]1(C(=O)Nc2ccc(F)nc2)CCCN1c1nc(Nc2cc(C3CC3)n[nH]2)c2cccn2n1
- inhibition [9]: 10.5%
